pEC50: −log10 of the molar value.
Each molecule was assayed against γ-secretase (Homo sapiens (Human), UniProt P49768) (assay: Cellular γ-secretase assay (Aβ42 secretion, AlphaLisa)). Conditions: inhibition of Aβ42 secretion; human neuroglioma H4 cells overexpressing human APP695 Swedish double mutation; 24 hr compound incubation.
Format: cell-based
Protocol: Human neuroglioma H4 cells overexpressing human APP695 with the Swedish double mutation (K595N/M596L) were plated at 30,000 cells/well/100 μl in 96-well plates in IMDM media containing 10% FCS, 0.2 mg/l Hygromycin B and incubated at 37° C., 5% CO2.
3-4 hr post plating, compounds are a diluted in media and 50 μl is added as […] concentrate to achieve the final concentration. Compound incubation is performed for 24 hr. Final doses typically range from 4 μM down to 0.0013 μM in half-log steps resulting in an eight point dose response curve. Appropriate controls using vehicle only and reference compound were applied to this assay. The final concentration of Me2SO was 0.4%.
After incubation at 37° C., 5% CO2, the supernatant was subjected to quantification of secreted Aβ42 by the means of an AlphaLisa assay kit (Human Amyloid beta 1-42 Kit: Cat # AL203C, Perkin Elmer). 20 μl of the cell culture supernatant was transferred to an assay plate. Then 10 μl of a mixture of the AlphaLisa coupled capture antibody and the biotinylated detection antibody was added and incubated for 3 hours at room temperature while softly shaking the assay plate. After a further addition of 20 μl of the Donor beads the assay plate was incubated for 30 min at room temperature and constant shaking without exposure to direct light. The assay plate was then read on a Paradigm AlphaLisa Reader using the build-in program with excitation at 680 nm and emission at […]. The measured signals were then used to calculate IC50 values for inhibition of Aβ42 secretion by nonlinear regression fit analysis using XLfit 5.3 software (IDBS).

| SMILES | pEC50 |
| --- | --- |
| CNc1nc(Nc2ccc(-n3cnc(C)n3)c(OC)c2)nc2c1C(C)(C)CN2C12CC(C(F)(F)F)(C1)C2 [Example 21, N2-(3-Methoxy-4-(3-methyl-1H-1,2,4-triazol-1-yl)phenyl)-N4,5,5-trimethyl-7-(3-(trifluoromethyl)bicyclo[1.1.1]pentan-1-yl)-6,7-dihydro-5H-pyrrolo[2,3-d]pyrimidine-2,4-diamine] | 7.14 |
| CNc1nc(Nc2cnc(-n3cnc(Cl)c3)c(OC)c2)nc2c1C(C)(C)CN2c1ccc(F)cc1 [Example 6, N2-(6-(4-Chloro-1H-imidazol-1-yl)-5-methoxypyridin-3-yl)-7-(4-fluorophenyl)-N4,5,5-trimethyl-6,7-dihydro-5H-pyrrolo[2,3-d]pyrimidine-2,4-diamine] | 8.05 |
| CNc1nc(Nc2cnc(-n3cnc(C)c3)c(OC)c2)nc2c1C(C)(C)CN2c1ccc(F)cc1 [Example 7, 7-(4-Fluorophenyl)-N2-(5-methoxy-6-(4-methyl-1H-imidazol-1-yl)pyridin-3-yl)-N4,5,5-trimethyl-6,7-dihydro-5H-pyrrolo[2,3-d]pyrimidine-2,4-diamine] | 8.30 |
| CNc1nc(Nc2ccc(-n3cnc(C)c3)c(F)c2)nc2c1C(C)(C)CN2c1ccc(F)cc1Cl [Example 45, 7-(2-Chloro-4-fluorophenyl)-N2-(3-fluoro-4-(4-methyl-1H-imidazol-1-yl)phenyl)-N4,5,5-trimethyl-6,7-dihydro-5H-pyrrolo[2,3-d]pyrimidine-2,4-diamine] | 8.40 |
| CNc1nc(Nc2cnc(-n3cnc(C)c3)c(OC)c2)nc2c1C(C)(C)CN2c1ccc(F)cc1F [Example 20, 7-(2,4-Difluorophenyl)-N2-(5-methoxy-6-(4-methyl-1H-imidazol-1-yl)pyridin-3-yl)-N4,5,5-trimethyl-6,7-dihydro-5H-pyrrolo[2,3-d]pyrimidine-2,4-diamine] | 8.10 |
| CNc1nc(Nc2ccc(-c3nnc(C)o3)c(OC)c2)nc2c1C(C)(C)CN2c1ccc(F)cc1 [Example 27, 7-(4-Fluorophenyl)-N2-(3-methoxy-4-(5-methyl-1,3,4-oxadiazol-2-yl)phenyl)-N4,5,5-trimethyl-6,7-dihydro-5H-pyrrolo[2,3-d]pyrimidine-2,4-diamine] | 7.52 |
| CNc1nc(Nc2ccc(-n3cnc(C)c3)c(F)c2)nc2c1C(C)(C)CCN2c1ccc(F)cc1 [Example 37, N2-(3-Fluoro-4-(4-methyl-1H-imidazol-1-yl)phenyl)-8-(4-fluorophenyl)-N4,5,5-trimethyl-5,6,7,8-tetrahydropyrido[2,3-d]pyrimidine-2,4-diamine] | 8.10 |
| CNc1nc(Nc2cnc(-n3cnc(C)c3)c(OC)c2)nc2c1C(C)(C)CN2c1cccc(F)c1F [Example 44, 7-(2,3-Difluorophenyl)-N2-(5-methoxy-6-(4-methyl-1H-imidazol-1-yl)pyridin-3-yl)-N4,5,5-trimethyl-6,7-dihydro-5H-pyrrolo[2,3-d]pyrimidine-2,4-diamine] | 8.30 |
| CNc1nc(Nc2ccc(-n3cnc(C)c3)c(F)c2)nc2c1CCN2c1ccc(F)cc1 [Example 38, N2-(3-Fluoro-4-(4-methyl-1H-imidazol-1-yl)phenyl)-7-(4-fluorophenyl)-N4-methyl-6,7-dihydro-5H-pyrrolo[2,3-d]pyrimidine-2,4-diamine] | 8.22 |
| CNc1nc(Nc2ccc(-n3cnc(C)c3)c(F)c2)nc2c1C(C)(C)CN2c1ccc(F)cc1 [Example 34, N2-(3-Fluoro-4-(4-methyl-1H-imidazol-1-yl)phenyl)-7-(4-fluorophenyl)-N4,5,5-trimethyl-6,7-dihydro-5H-pyrrolo[2,3-d]pyrimidine-2,4-diamine] | 8.10 |
| COc1cc(Nc2nc(NCCO)c3c(n2)N(c2ccc(F)cc2)CC3(C)C)ccc1-n1cnc(C)n1 [Example 28, 2-((7-(4-Fluorophenyl)-2-((3-methoxy-4-(3-methyl-1H-1,2,4-triazol-1-yl)phenyl)amino)-5,5-dimethyl-6,7-dihydro-5H-pyrrolo[2,3-d]pyrimidin-4-yl)amino)ethanol] | 8.10 |
| CNc1nc(Nc2cnc(-n3cnc(C)c3)c(F)c2)nc2c1C(C)(C)CN2c1cccc(F)c1F [Example 42, 7-(2,3-Difluorophenyl)-N2-(5-fluoro-6-(4-methyl-1H-imidazol-1-yl)pyridin-3-yl)-N4,5,5-trimethyl-6,7-dihydro-5H-pyrrolo[2,3-d]pyrimidine-2,4-diamine] | 8.10 |
| CNc1nc(Nc2ccc(-n3cnc(C)n3)c(OC)c2)nc2c1C(C)(C)CN2c1ccc(F)c(F)c1 [Example 8, 7-(3,4-Difluorophenyl)-N2-(3-methoxy-4-(3-methyl-1H-1,2,4-triazol-1-yl)phenyl)-N4,5,5-trimethyl-6,7-dihydro-5H-pyrrolo[2,3-d]pyrimidine-2,4-diamine] | 8.30 |
| CNc1nc(Nc2ccc(-n3cnc(C)c3)c(F)c2)nc2c1C(C)(C)CN2c1cccc(F)c1F [Example 43, 7-(2,3-Difluorophenyl)-N2-(3-fluoro-4-(4-methyl-1H-imidazol-1-yl)phenyl)-N4,5,5-trimethyl-6,7-dihydro-5H-pyrrolo[2,3-d]pyrimidine-2,4-diamine] | 8.30 |
| CNc1nc(Nc2ccc(-n3cnc(C)n3)c(F)c2)nc2c1C(C)(C)CN2c1ccc(F)c(F)c1 [Example 9, 7-(3,4-Difluorophenyl)-N2-(3-fluoro-4-(3-methyl-1H-1,2,4-triazol-1-yl)phenyl)-N4,5,5-trimethyl-6,7-dihydro-5H-pyrrolo[2,3-d]pyrimidine-2,4-diamine] | 7.59 |
| CNc1nc(Nc2cnc(-n3cnc(C)c3)c(OC)c2)nc2c1C(C)(C)CN2C12CC(C(F)(F)F)(C1)C2 [Example 22, N2-(5-Methoxy-6-(4-methyl-1H-imidazol-1-yl)pyridin-3-yl)-N4,5,5-trimethyl-7-(3-(trifluoromethyl)bicyclo[1.1.1]pentan-1-yl)-6,7-dihydro-5H-pyrrolo[2,3-d]pyrimidine-2,4-diamine] | 7.52 |
| CNc1nc(Nc2ccc(-n3cnc(Cl)c3)c(OC)c2)nc2c1C(C)(C)CN2c1ccc(F)cc1 [Example 4, N2-(4-(4-Chloro-1H-imidazol-1-yl)-3-methoxyphenyl)-7-(4-fluorophenyl)-N4,5,5-trimethyl-6,7-dihydro-5H-pyrrolo[2,3-d]pyrimidine-2,4-diamine] | 8.15 |
| CNc1nc(Nc2cnc(-n3cnc(Cl)c3)c(OC)c2)nc2c1C(C)(C)CN2c1ccc(F)cc1F [Example 23, N2-(6-(4-Chloro-1H-imidazol-1-yl)-5-methoxypyridin-3-yl)-7-(2,4-difluorophenyl)-N4,5,5-trimethyl-6,7-dihydro-5H-pyrrolo[2,3-d]pyrimidine-2,4-diamine] | 8.10 |
| COc1cc(Nc2nc(NCCO)c3c(n2)N(c2ccc(F)cc2)CC3(C)C)cnc1-n1cnc(Cl)c1 [Example 30, 2-((2-((6-(4-Chloro-1H-imidazol-1-yl)-5-methoxypyridin-3-yl)amino)-7-(4-fluorophenyl)-5,5-dimethyl-6,7-dihydro-5H-pyrrolo[2,3-d]pyrimidin-4-yl)amino)ethanol] | 7.96 |
| CNc1nc(Nc2ccc(-n3cnc(C)n3)c(F)c2)nc2c1C(C)(C)CN2c1ccc(F)cc1 [Example 3, N2-(3-Fluoro-4-(3-methyl-1H-1,2,4-triazol-1-yl)phenyl)-7-(4-fluorophenyl)-N4,5,5-trimethyl-6,7-dihydro-5H-pyrrolo[2,3-d]pyrimidine-2,4-diamine] | 7.80 |
| Cc1ncn(-c2ccc(Nc3nc(NCCO)c4c(n3)N(c3ccc(F)cc3)CC4(C)C)cc2F)n1 [Example 31, 2-((2-((3-Fluoro-4-(3-methyl-1H-1,2,4-triazol-1-yl)phenyl)amino)-7-(4-fluorophenyl)-5,5-dimethyl-6,7-dihydro-5H-pyrrolo[2,3-d]pyrimidin-4-yl)amino)ethanol] | 7.82 |
| CNc1nc(Nc2ccc(-n3cnc(C)n3)c(OC)c2)nc2c1C(C)(C)CN2C1CC(F)(F)C1 [Example 17, 7-(3,3-Difluorocyclobutyl)-N2-(3-methoxy-4-(3-methyl-1H-1,2,4-triazol-1-yl)phenyl)-N4,5,5-trimethyl-6,7-dihydro-5H-pyrrolo[2,3-d]pyrimidine-2,4-diamine] | 7.72 |
| CNc1nc(Nc2ccc(-n3cnc(C)c3)c(F)c2)nc2c1[C@@H](C)CN2c1ccc(F)cc1 (single isomer, unassigned) [Example 46q, (R)— or (S)—N2-(3-Fluoro-4-(4-methyl-1H-imidazol-1-yl)phenyl)-7-(4-fluorophenyl)-N4,5-dimethyl-6,7-dihydro-5H-pyrrolo[2,3-d]pyrimidine-2,4-diamine] | 8.15 |

From patent US10669276B2, “Fused pyrimidine derivatives” (Hoffmann-La Roche Inc., priority 2016, dated 2020)
